The source of these data is paper PMC11497264 (Chembiochem, 2024).

The target in experiment [1] is T1, human GRP78 (Homo sapiens, UniProt P11021).
T1 construct: The full length human GRP78 protein recombinantly produced in Escherichia coli; 6xHis (inferred from capture on nickel-NTA chip); purchased Abcam (Cambridge, UK); host or cells: Escherichia coli
In words: biochemical. It counts as binding. The conditions noted are these: for kon: read-out: Ka1 (association rate constant 1).

The target of experiment [2] is T2, GRP78:S1 interaction (Homo sapiens, UniProt P11021).
T2 construct: The full length human GRP78 protein recombinantly produced in Escherichia coli; purchased Abcam (GRP78); Peak Proteins Ltd (S1); host or cells: Escherichia coli (GRP78); HEK293 (S1)
As to the kind of experiment: biochemical. It counts as binding, human GRP78 / SARS-CoV-2 S1.

The mark [3] stands for this setting: read-out: Kd1 (dissociation rate constant 1).
The mark [4] stands for this setting: read-out: Kd2 (dissociation rate constant 2).

pIC50, pKd: −log10 of the molar value. Where two headings read alike, the source gives them in different places. Bridge positions count the residues as written; N and C are the ends. Peptide text beside a SMILES is read from it.

T1 sequence (P11021 19-654): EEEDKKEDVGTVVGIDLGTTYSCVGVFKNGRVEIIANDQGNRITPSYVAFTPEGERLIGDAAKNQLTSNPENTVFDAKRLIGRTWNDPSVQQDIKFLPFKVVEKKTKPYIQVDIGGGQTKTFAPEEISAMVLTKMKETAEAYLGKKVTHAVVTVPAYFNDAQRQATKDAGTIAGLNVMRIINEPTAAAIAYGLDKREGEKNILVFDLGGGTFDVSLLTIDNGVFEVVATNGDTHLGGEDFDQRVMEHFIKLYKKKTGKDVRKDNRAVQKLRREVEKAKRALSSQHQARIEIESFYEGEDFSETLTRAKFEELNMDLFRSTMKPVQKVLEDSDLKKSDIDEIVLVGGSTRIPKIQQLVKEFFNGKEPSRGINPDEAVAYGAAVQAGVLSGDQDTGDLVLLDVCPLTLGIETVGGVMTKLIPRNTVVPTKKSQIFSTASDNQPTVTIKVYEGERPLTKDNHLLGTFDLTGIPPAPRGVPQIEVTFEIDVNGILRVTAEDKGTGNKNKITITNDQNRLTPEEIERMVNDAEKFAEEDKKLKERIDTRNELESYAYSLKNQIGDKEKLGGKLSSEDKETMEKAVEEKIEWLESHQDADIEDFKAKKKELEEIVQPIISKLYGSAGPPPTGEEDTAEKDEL
T2 sequence (P11021 19-654): as above

The pKd is the negative decadic logarithm of the Kd, by convention in mol/L. As a reminder, the pIC50 is the IC50 on a negative log10 scale, so that one unit is a factor of ten. A higher pIC50 goes with a small IC50. For the compound `CC(C)[C@@H]1NC(=O)CNC(=O)[C@H](CC(N)=O)NC(=O)[C@@H](N)CSSC[C@@H](C(N)=O)NC(=O)[C@H](CC(N)=O)NC(=O)[C@H](Cc2ccccc2)NC(=O)CNC(=O)[C@H](CCC(=O)O)NC1=O` [LCP W] (H-CNGVEGFNC-NH2; disulfide 1-9), the negative-log Kd (pKd) in experiment [1] (affinity of binding to GRP78) was 3.70. The kon in experiment [1] was found to be 1670 M⁻¹ s⁻¹. Besides, the koff in experiment [1] (setting [3]) was determined as 0.43 s⁻¹; in experiment [1] (setting [4]), 0.03 s⁻¹. Moreover, the pIC50 in experiment [2] was > 5.52.

In the case of `CC(C)[C@@H]1NC(=O)CNC(=O)[C@H](CC(N)=O)NC(=O)[C@@H](N)CSSC[C@@H](C(N)=O)NC(=O)[C@H](CC(N)=O)NC(=O)[C@H](Cc2ccccc2)NC(=O)CNC(=O)[C@H](C)NC1=O` [LCP O] (H-CNGVAGFNC-NH2; disulfide 1-9), the pKd is 2.67 in experiment [1] (KD (equilibrium dissociation constant)) and 2.70 in experiment [1] (affinity of binding to GRP78). Moreover, the kon in experiment [1] came out at 140 M⁻¹ s⁻¹. The koff in experiment [1] (setting [3]) was 0.643 s⁻¹; in experiment [1] (setting [4]), 0.00182 s⁻¹. Also, in experiment [2], the pIC50 is > 5.52.
